Source: publication PMC5052559, “A fragment-based approach applied to a highly flexible target: Insights and challenges towards the inhibition of HSP70 isoforms” (Scientific Reports, 2016)

Key:
WT HSC70-NBD = biological target: T1, WT HSC70-NBD (Homo sapiens, UniProt P11142); assay: SPR binding to wild-type HSC70-NBD; conditions: for Kd / Kd WT HSC70-NBD: 25 °C; for LE (ligand efficiency): calculated using the SPR Kd on WT HSC70-NBD; for increase in affinity compared to parent fragment: SPR Kd, 23 vs 10, 24 vs 19
T1 construct: WT HSPA8 (HSC70) residues 1 to 381; GST (N, cleaved yes); made in house; host or cells: E. coli BL21-AI (expressed as described for FL-HSP72)
Procedure: (§1) SPR experiments were carried out using a Biacore T200 (GE Healthcare) at 25 °C. Amine coupling chemistry was used to immobilise the HSC70 NBD domain and S275W, S275F and S275A HSC70-NBD mutant proteins on a carboxymethyl-5′-dextran (CM5) sensor chip. The chip’s surface was activated with a 10 min injection of a 1:1 mixture of 100 mM N-hydroxysuccinimide and 400 mM 1-ethyl-3-(3-dimethylaminopropyl)-carbodiimide. […] The remaining activated groups on the surface were blocked with a 7 min injection of 1 M ethanolamine at pH 8.5. […] Flow cell one was left unmodified as the reference surface.
(§2) In addition, a DMSO correction curve, prepared as described in the GE manual, was used to correct the effects of the solvent on signal intensity. Raw SPR data from the single point screen was processed and analysed using Pipeline Pilot version 8.0.1.500[37]. Firstly, the reported binding level for each fragment was corrected by subtraction of the buffer blank.
(§3) The initial fragment hits were further investigated in a three-point concentration-response experiment against freshly immobilised WT HSC70-NBD and the S275W HSC70-NBD mutants using the same experimental protocol as for the primary screen. Compound dilutions of 50, 100 and 200 μM were generated using the ECHO 550.

S275W HSC70-NBD = biological target: T2, S275W HSC70-NBD (Homo sapiens, UniProt P11142, S275W); assay: SPR binding to S275W HSC70-NBD mutant
T2 construct: WT HSPA8 (HSC70) residues 1 to 381; GST (N, cleaved yes); made in house; host or cells: E. coli BL21-AI (expressed as described for FL-HSP72)
Procedure: as §1, §2, §3

S275F HSC70-NBD = biological target: T3, S275F HSC70-NBD (Homo sapiens, UniProt P11142, S275F); assay: SPR binding to S275F HSC70-NBD mutant
T3 construct: WT HSPA8 (HSC70) residues 1 to 381; GST (N, cleaved yes); made in house; host or cells: E. coli BL21-AI (expressed as described for FL-HSP72)
Procedure: SPR experiments were carried out using a Biacore T200 (GE Healthcare) at 25 °C. Amine coupling chemistry was used to immobilise the HSC70 NBD domain and S275W, S275F and S275A HSC70-NBD mutant proteins on a carboxymethyl-5′-dextran (CM5) sensor chip. The chip’s surface was activated with a 10 min injection of a 1:1 mixture of 100 mM N-hydroxysuccinimide and 400 mM 1-ethyl-3-(3-dimethylaminopropyl)-carbodiimide. The HSC70 proteins (70 μg/mL in 10 mM sodium acetate, 750 μM ADP, pH 5.0) were immobilised on the surface over a 10 min injection period. The remaining activated groups on the surface were blocked with a 7 min injection of 1 M ethanolamine at pH 8.5. For all the above procedures the flow rate was maintained at 10 μL/min and a 1x phosphate buffered saline running buffer (PBS running buffer: 10 mM NaHPO4/NaH2PO4 pH 7.4, 2.7 mM KCl, 137 mM NaCl) was used during immobilisation. Approximately ~13,000 response units (RU) of protein could be routinely captured on the CM5 chip on flow cells two to four. Flow cell one was left unmodified as the reference surface. Our in-house fragment library of 1962 fragments at a stock concentration of 100 mM in 100% (v/v) was screened. SPR screening plates were prepared by dispensing of 0.1 μL of each fragment in 384-well polypropylene V-bottomed plates (Greiner) using an ECHO 550 acoustic liquid dispenser (Labcyte) followed by addition of fresh DMSO and running buffer to give a final fragment concentration of 125 μM in 5% (v/v) DMSO in an assay volume of 80 μL.
The full fragment screen was carried out against freshly immobilised WT-HSC70 NBD and the S275W and S275F HSC70-NBD mutants, using the same experimental setting as for the clean screen and a final fragment concentration of 125 μM. Injections of running buffer and of 125 μM adenosine, which was used as a positive control to monitor the health of the protein, were carried out at intervals of 35 cycles throughout the screen. In addition, a DMSO correction curve, prepared as described in the GE manual, was used to correct the effects of the solvent on signal intensity. Raw SPR data from the single point screen was processed and analysed using Pipeline Pilot version 8.0.1.500[37]. Firstly, the reported binding level for each fragment was corrected by subtraction of the buffer blank. Secondly, the values were corrected for the molecular weight of each fragment and the binding was normalised to the binding level observed for the closest adenosine control. […] However, fragments with a binding level exceeding two times the theoretical Rmax were excluded, as we considered this an indication of superstoichiometric binding. Finally, fragments showing preferred binding to wild-type HSC70-NBD versus the HSC70-NBD mutants with a blocked adenine sub pocket were identified by plotting the binding levels of the fragments to wild-type HSC70-NBD against the binding levels of the respective mutant HSC70-NBD variants and added to the primary hit list. In total this procedure yielded 54 initial fragment hits.

HSC70-NBD S275A mutant = biological target: T4, HSC70-NBD S275A mutant (Homo sapiens, UniProt P11142, S275A); assay: SPR binding to S275A HSC70-NBD mutant; conditions: n = 3
T4 construct: WT HSPA8 (HSC70) residues 1 to 381; GST (N, cleaved yes); made in house; host or cells: E. coli BL21-AI (expressed as described for FL-HSP72)
Procedure: SPR experiments were carried out using a Biacore T200 (GE Healthcare) at 25 °C. Amine coupling chemistry was used to immobilise the HSC70 NBD domain and […], […] and […] HSC70-NBD mutant proteins on a carboxymethyl-5'-dextran (CM5) sensor chip. […] The remaining activated groups on the surface were blocked with a 7 min injection of 1 M ethanolamine at pH 8.5. For all the above procedures the flow rate was maintained at 10 μL/min and a 1x phosphate buffered saline running buffer (PBS running buffer: 10 mM NaHPO4/NaH2PO4 pH 7.4, 2.7 mM KCl, 137 mM NaCl) was used during immobilisation. Approximately ~13,000 response units (RU) of protein could be routinely captured on the CM5 chip on flow cells two to four. Flow cell one was left unmodified as the reference surface. Our in-house fragment library of 1962 fragments at a stock concentration of 100 mM in 100% (v/v) was screened. SPR screening plates were prepared by dispensing of 0.1 μL of each fragment in 384-well polypropylene V-bottomed plates (Greiner) using an ECHO 550 acoustic liquid dispenser (Labcyte) followed by addition of fresh DMSO and running buffer to give a final fragment concentration of 125 μM in 5% (v/v) DMSO in an assay volume of 80 μL. The initial fragment hits were further investigated in a three-point concentration-response experiment against freshly immobilised WT HSC70-NBD and the […] HSC70-NBD mutants using the same experimental protocol as for the primary screen. Compound dilutions of 50, 100 and 200 μM were generated using the ECHO 550. A confirmed hit was defined as a fragment giving greater than 10% response compared to adenosine and these were prioritised on the basis of their concentration response, ratio of experimental and theoretical Rmax, and shape of the sensorgrams, and expected fast on/fast off binding kinetics. […] HSC70-NBD mutant. […] Nucleotides were dissolved in double distilled water to give 10 mM stock solutions, then diluted 40X with DMSO and tested using a concentration range between 0.0625 μM and 2.5 μM.

[1] = SPR, mean ± standard deviation or standard error, triplicate unless marked duplicate/single
[2] = SPR, mean ± SD, No binding = binding level ≤10RU at 1mM

T3 sequence (P11142 1-381 S275F): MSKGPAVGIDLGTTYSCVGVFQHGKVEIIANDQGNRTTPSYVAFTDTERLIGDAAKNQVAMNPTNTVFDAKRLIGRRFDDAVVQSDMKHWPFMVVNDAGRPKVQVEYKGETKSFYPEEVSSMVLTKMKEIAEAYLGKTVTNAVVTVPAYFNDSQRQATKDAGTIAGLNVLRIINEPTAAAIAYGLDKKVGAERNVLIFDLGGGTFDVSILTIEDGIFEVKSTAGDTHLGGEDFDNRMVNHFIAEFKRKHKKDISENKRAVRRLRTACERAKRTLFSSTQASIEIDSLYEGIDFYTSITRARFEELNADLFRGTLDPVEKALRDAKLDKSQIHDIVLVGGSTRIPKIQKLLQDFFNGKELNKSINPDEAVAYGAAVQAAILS
T1 sequence (P11142 1-381): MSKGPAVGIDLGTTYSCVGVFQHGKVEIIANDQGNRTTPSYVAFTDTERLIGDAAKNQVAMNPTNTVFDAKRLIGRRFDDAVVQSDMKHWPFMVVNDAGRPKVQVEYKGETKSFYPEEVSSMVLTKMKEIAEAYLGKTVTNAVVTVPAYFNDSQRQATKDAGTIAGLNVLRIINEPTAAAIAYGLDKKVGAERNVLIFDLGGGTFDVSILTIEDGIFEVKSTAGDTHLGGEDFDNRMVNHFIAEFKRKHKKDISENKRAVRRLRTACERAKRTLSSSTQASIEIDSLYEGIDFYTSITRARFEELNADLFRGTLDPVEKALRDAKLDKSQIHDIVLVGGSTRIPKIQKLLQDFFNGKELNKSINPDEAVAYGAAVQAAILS
T2 sequence (P11142 1-381 S275W): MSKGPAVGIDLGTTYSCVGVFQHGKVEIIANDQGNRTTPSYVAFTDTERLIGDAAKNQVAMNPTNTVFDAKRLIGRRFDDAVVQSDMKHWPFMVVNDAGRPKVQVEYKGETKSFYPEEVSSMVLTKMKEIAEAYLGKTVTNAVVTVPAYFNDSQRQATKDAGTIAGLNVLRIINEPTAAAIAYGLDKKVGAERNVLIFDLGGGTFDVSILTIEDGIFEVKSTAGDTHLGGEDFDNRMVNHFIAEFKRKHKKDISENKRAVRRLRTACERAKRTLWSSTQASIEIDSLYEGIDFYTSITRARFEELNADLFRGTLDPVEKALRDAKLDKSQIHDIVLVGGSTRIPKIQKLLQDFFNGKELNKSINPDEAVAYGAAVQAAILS
T4 sequence (P11142 1-381 S275A): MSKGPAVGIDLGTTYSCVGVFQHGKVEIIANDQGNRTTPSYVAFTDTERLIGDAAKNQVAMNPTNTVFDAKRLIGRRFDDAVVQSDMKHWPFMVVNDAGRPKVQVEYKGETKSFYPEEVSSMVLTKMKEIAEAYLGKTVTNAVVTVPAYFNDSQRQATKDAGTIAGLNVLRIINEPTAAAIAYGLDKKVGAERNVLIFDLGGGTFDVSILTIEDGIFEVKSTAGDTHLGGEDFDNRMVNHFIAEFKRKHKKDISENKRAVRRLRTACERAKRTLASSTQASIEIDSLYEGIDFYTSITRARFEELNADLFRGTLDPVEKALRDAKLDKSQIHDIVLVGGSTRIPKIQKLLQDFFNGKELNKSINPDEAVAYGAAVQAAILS

| SMILES | Kd (WT HSC70-NBD; [1]) | LE (ligand efficiency) (WT HSC70-NBD) | also measured |
| --- | --- | --- | --- |
| COc1ccc2c(N)ncnc2c1 [Compound 17] | 850 µM | – | – |
| Cc1cn([C@H]2C[C@H](O)[C@@H](COP(=O)(O)OP(=O)(O)O)O2)c(=O)[nH]c1=O [TDP, reference compound] | – | – | Kd WT HSC70-NBD (WT HSC70-NBD; [2]): No binding |
| Cc1nc(N)c2ccccc2n1 [Compound 11] | – | – | binding to WT HSC70-NBD (in words) (WT HSC70-NBD; SPR): no detectable affinity |
| Nc1ncnc2c1ncn2[C@@H]1O[C@H](COP(=O)(O)OP(=O)(O)O)[C@@H](O)[C@H]1O [ADP, reference compound] | – | 0.31 | Kd (WT HSC70-NBD; [2]): 0.71 ± 0.32 µM; Kd (HSC70-NBD S275A mutant): 5.6 ± 2.4 µM; binding to S275W HSC70-NBD mutant (in words) (S275W HSC70-NBD): abolished binding; binding to S275F HSC70-NBD mutant (in words) (S275F HSC70-NBD): abolished binding |
| COc1cc2ncnc(N)c2cc1OC [Compound 19] | 830 µM | – | – |
| Nc1ccn([C@@H]2O[C@H](COP(=O)(O)OP(=O)(O)O)[C@@H](O)[C@H]2O)c(=O)n1 [CDP, reference compound] | – | – | Kd WT HSC70-NBD (WT HSC70-NBD; [2]): No binding |
| Nc1ncnc2[nH]cnc12 [Compound 5, adenine, reference compound] | – | – | Kd WT HSC70-NBD (WT HSC70-NBD; [2]): No binding |
| OC[C@H]1C[C@@H](Nc2ncnc3cccc(OCc4ccc(Cl)c(Cl)c4)c23)[C@H](O)[C@@H]1O [Compound 27] | 850 µM | 0.14 | Kd (S275W HSC70-NBD; single measurement): 5 mM |
| OC[C@H]1C[C@@H](Nc2ncnc3cccc(OCc4ccccc4)c23)[C@H](O)[C@@H]1O [Compound 28] | 370 µM | 0.17 | Kd S275W HSC70-NBD (S275W HSC70-NBD; single measurement): No binding |
| COc1cccc2c(N)ncnc12 [Compound 18] | 2000 µM | – | – |
| Nc1ncnc2c1ncn2[C@@H]1O[C@H](COP(=O)(O)OP(=O)(O)OP(=O)(O)O)[C@@H](O)[C@H]1O [ATP, reference compound] | – | 0.29 | Kd (WT HSC70-NBD; [2]): 0.33 µM; Kd (HSC70-NBD S275A mutant): 2.1 µM |
| Nc1ncnc2c1nc(N)n2[C@@H]1O[C@H](CO)[C@@H](O)[C@H]1O [Compound 4, 8-aminoadenosine, reference compound] | – | 0.35 | Kd (WT HSC70-NBD; [2]): 8 µM |
| COc1cc2ncnc(N[C@@H]3C[C@H](CO)[C@@H](O)[C@H]3O)c2cc1OC [Compound 24] | 250 µM | – | increase in affinity compared to parent fragment (WT HSC70-NBD): three-fold |
| N#Cc1ccc(COC[C@H]2C[C@@H](Nc3ncnc4cccc(OCc5ccccc5)c34)[C@H](O)[C@@H]2O)cc1 [Compound 29] | 2000 µM | 0.10 | Kd (S275W HSC70-NBD; single measurement): 2 mM |
| CNc1ncnc2ccccc12 [Compound 20] | 4800 ± 1100 µM | – | – |
| O=c1ccn([C@@H]2O[C@H](COP(=O)(O)OP(=O)(O)O)[C@@H](O)[C@H]2O)c(=O)[nH]1 [UDP, reference compound] | – | – | Kd WT HSC70-NBD (WT HSC70-NBD; [2]): No binding |
| COc1cccc2ncnc(N)c12 [Compound 15] | 830 µM | – | – |
| OC[C@H]1C[C@@H](Nc2ncnc3ccccc23)[C@H](O)[C@@H]1O [Compound 23] | – | – | increase in affinity compared to parent fragment (WT HSC70-NBD): 7 fold; Kd (WT HSC70-NBD; [2]): 310 ± 100 µM |
| Cc1cccc2c(N)ncnc12 [Compound 14] | 2900 µM | – | – |
| CN1N=C(N)c2c[nH]c3ncnc1c23 [Compound 3] | 3500 ± 600 µM | – | – |

Now from value to compound, other results behind:

| Kd (WT HSC70-NBD; [1]) | LE (ligand efficiency) (WT HSC70-NBD) | SMILES | also measured |
| --- | --- | --- | --- |
| 1400 ± 100 µM | 0.33 | Cc1ccc2ncnc(N)c2c1 [Compound 8] | binding to S275W HSC70-NBD mutant (in words) (S275W HSC70-NBD): reduced binding and a low degree of saturation; binding to S275F HSC70-NBD mutant (in words) (S275F HSC70-NBD): reduced binding and a low degree of saturation |
| 800 µM | – | Cc1ccc2c(N)ncnc2c1 [Compound 13, 7-methyl 4-aminoquinazoline] | – |
| 1040 µM | – | COc1cccc2ncnc(N[C@@H]3C[C@H](CO)[C@@H](O)[C@H]3O)c12 [Compound 26] | – |
| 1000 µM | – | COc1ccc2ncnc(N)c2c1 [Compound 16, 6-methoxy 4-aminoquinazoline] | – |
| – | 0.34 | Nc1nc2ncnc(N)c2[nH]1 [Compound 6, 8-aminoadenine, reference compound] | Kd (WT HSC70-NBD; [2]): 2100 µM |
| 1700 ± 600 µM | 0.27 | O=c1[nH]cnc2c1oc1ccccc12 [Compound 7] | binding to S275W HSC70-NBD mutant (in words) (S275W HSC70-NBD): reduced binding and a low degree of saturation; binding to S275F HSC70-NBD mutant (in words) (S275F HSC70-NBD): reduced binding and a low degree of saturation |
| 2100 µM | – | Nc1ncnc2ccccc12 [Compound 10] | – |
| – | 0.18 | Nc1nc2c(ncn2[C@@H]2O[C@H](COP(=O)(O)OP(=O)(O)O)[C@@H](O)[C@H]2O)c(=O)[nH]1 [GDP, reference compound] | Kd (WT HSC70-NBD; [2]): 223 µM |
| 12000 µM | – | Cc1cccc2ncnc(N)c12 [Compound 12] | – |
| – | 0.28 | Nc1ncnc2c1ncn2[C@@H]1O[C@H](CO)[C@@H](O)[C@H]1O [Adenosine, adenosine, reference compound] | Kd (WT HSC70-NBD; [2]): 165 µM; Kd (HSC70-NBD S275A mutant): 1800 ± 520 µM; binding to S275W HSC70-NBD mutant (in words) (S275W HSC70-NBD): abolished binding; binding to S275F HSC70-NBD mutant (in words) (S275F HSC70-NBD): abolished binding |
